Non-standard residues stand in square brackets, D forms with d. Residues, ends and D or L forms follow the SMILES beside them. *: point of attachment. DOTA = O=C(O)CN1CCN(CC(=O)O)CCN(CC(=O)*)CCN(CC(=O)O)CC1; EuK = O=C(O)CC[C@H](NC(=O)N[C@@H](CCCCN*)C(=O)O)C(=O)O; 2Nal = N[C@@H](Cc1ccc2ccccc2c1)C(=O)O; Trx = NC[C@H]1CC[C@H](C(=O)O)CC1
What was measured:
in vivo [1] = conditions: male, BALB/c nu/nu, mouse, iv, 500 pmol, total radioactivity
in vivo [2] = conditions: male, BALB/c nu/nu, mouse, iv, 500 pmol, total radioactivity; remark: listed apart in the source
[3] = Dynamic small-animal PET imaging (0 - 60 min); conditions: male, BALB/c nu/nu, mouse, tumor (LNCaP xenograft), iv, 500 pmol, total radioactivity
[4] = Static small-animal PET imaging 1 h and 2 h p.i.; conditions: male, BALB/c nu/nu, mouse, iv, 500 pmol, total radioactivity; for SUV at 1 h / SUV at 2 h: 68Ga-labeled, 0.5 nmol i.v., n = 1, SD from VOIs; for SUV at 1 h: static PET 1 h p.i.; for SUV at 2 h: static PET 2 h p.i.
[5] = tumor (LNCaP xenograft), SUV tumor

SUV at 1 h (in vivo [1])	tissue to tissue ratio at 1 h (in vivo [2])	SUV at 1 h [3]	SUV at 1 h ([4]; kidneys, SUV kidneys)	SUV at 2 h ([4]; kidneys, SUV kidneys)	SUV at 1 h [4, 5]	SUV at 2 h [4, 5]	tissue to tissue ratio at 1 h ([4]; tumor / muscle)	Structure (SMILES)
1.17 SUV	16.2 ± 0.27							O=C(O)CC[C@H](NC(=O)N[C@@H](CCCCNC(=O)[C@H](Cc1ccc2ccccc2c1)NC(=O)[C@H]1CC[C@H](CNC(=O)[C@H](CCC(=O)O)NC(=O)[C@H](CCC(=O)O)NC(=O)[C@H](CCC(=O)O)NC(=O)CN2CCN(CC(=O)O)CCN(CC(=O)O)CCN(CC(=O)O)CC2)CC1)C(=O)O)C(=O)O [[^68Ga]Ga-PS8, metal not drawn] ({DOTA}-EEE[Trx][2Nal]-EuK)
		1.07 SUV	3.81 ± 0.15 SUV	2.77 ± 0.2 SUV	1.15 ± 0.04 SUV	1.07 ± 0.09 SUV	10.5 ± 0.2	O=C(O)CC[C@H](NC(=O)N[C@@H](CCCCNC(=O)[C@H](Cc1ccc2ccccc2c1)NC(=O)[C@H]1CC[C@H](CNC(=O)[C@H](CCC(=O)O)NC(=O)[C@H](Cc2c[nH]cn2)NC(=O)[C@H](CCC(=O)O)NC(=O)[C@H](Cc2c[nH]cn2)NC(=O)[C@H](CCC(=O)O)NC(=O)[C@H](Cc2c[nH]cn2)NC(=O)CN2CCN(CC(=O)O)CCN(CC(=O)O)CCN(CC(=O)O)CC2)CC1)C(=O)O)C(=O)O [[^68Ga]Ga-PS4, metal not drawn] ({DOTA}-HEHEHE[Trx][2Nal]-EuK)

Reference: PMC12775819, “Optimizing PSMA-617-based inhibitors through charged linker modifications: Insights into structure-activity relationships” (Theranostics, 2026)
